Consider nine test systems from the supplement of paper PMC6045584.

± gives the standard deviation of the averaged measurements.

Compound in test [1]: COc1cc([C@@H]2c3cc4c(cc3[C@@H](O[C@@H]3O[C@@H]5CO[C@@H](C)O[C@H]5[C@H](O)[C@H]3O)[C@H]3COC(=O)[C@H]23)OCO4)cc(OC)c1O [ETOPOSIDE]
Description: surviving fraction relative to DMSO-only wells; higher = less growth inhibition. The following applies: exposure time: 5 days. The essentials:
(§1)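 For each tumour cell line, log-phase cells were put into 384-well plates at 250–500 cells per well, then after 24 hours exposed continuously for five days to inhibitors at 0.5, 1, 5, 10, 50, 100, 500 and 1000 nM. Viability was assessed by CellTiter-Glo luminescence, with surviving fraction expressed relative to the median of DMSO-only wells. Lines were screened three times and retained only if replicate Pearson r exceeded 0.7 and median Z' exceeded 0.3.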

Compound in test [2]: CO[C@H]1C[C@@H]2CC[C@@H](C)[C@@](O)(O2)C(=O)C(=O)N2CCCC[C@H]2C(=O)O[C@H]([C@H](C)C[C@@H]2CC[C@@H](OCCO)[C@H](OC)C2)CC(=O)[C@H](C)/C=C(\C)[C@@H](O)[C@@H](OC)C(=O)[C@H](C)C[C@H](C)/C=C/C=C/C=C/1C [EVEROLIMUS]
The test is described as above. The following applies: exposure time: 5 days. The essentials:
as §1

As for CAL51 BREAST, the surviving fraction amounted to 0.951 ± 0.068 in test [1] (0.5 nM); 1.02 ± 0.022 in test [1] (1 nM); 0.956 ± 0.039 in test [1] (5 nM); 0.977 ± 0.049 in test [1] (10 nM); 0.929 ± 0.063 in test [1] (50 nM); 0.921 ± 0.019 in test [1] (100 nM). Besides, the surviving fraction in test [1] (500 nM) was 0.305 ± 0.037; in test [1] (1000 nM), 0.139 ± 0.011; in test [2] (0.5 nM), 0.684 ± 0.049; in test [2] (1 nM) it was 0.527 ± 0.046; in test [2] (5 nM), 0.406 ± 0.026; in test [2] (10 nM) it was 0.376 ± 0.0096. In addition, the surviving fraction in test [2] (50 nM) came out at 0.332 ± 0.029; in test [2] (100 nM), 0.283 ± 0.011; in test [2] (500 nM), 0.257 ± 0.039; in test [2] (1000 nM), 0.26 ± 0.025.
Turning to CAL120 BREAST, the surviving fraction in test [1] (0.5 nM) came out at 0.939 ± 0.036; in test [1] (1 nM), 0.933 ± 0.033; in test [1] (5 nM), 0.982 ± 0.016; in test [1] (10 nM) it was 0.973 ± 0.013; in test [1] (50 nM), 0.938 ± 0.035; in test [1] (100 nM) it was 0.939 ± 0.038. Also, the surviving fraction is 0.498 ± 0.1 in test [1] (500 nM); 0.356 ± 0.011 in test [1] (1000 nM); 0.707 ± 0.073 in test [2] (0.5 nM); 0.602 ± 0.062 in test [2] (1 nM); 0.501 ± 0.028 in test [2] (5 nM); 0.486 ± 0.026 in test [2] (10 nM). Besides, the surviving fraction in test [2] (50 nM) was 0.463 ± 0.007; in test [2] (100 nM) it was 0.45 ± 0.021; in test [2] (500 nM) it was 0.424 ± 0.021; in test [2] (1000 nM) it was 0.412 ± 0.0054.
For CASKI CERVIX, the surviving fraction in test [1] (0.5 nM) stood at 0.904 ± 0.037; in test [1] (1 nM), 0.934 ± 0.061; in test [1] (5 nM), 0.99 ± 0.035; in test [1] (10 nM) it was 0.939 ± 0.014; in test [1] (50 nM), 0.876 ± 0.051; in test [1] (100 nM) it was 0.86 ± 0.0087. For the same test system, the surviving fraction was found to be 0.303 ± 0.019 in test [1] (500 nM); 0.182 ± 0.0059 in test [1] (1000 nM); 0.57 ± 0.035 in test [2] (0.5 nM); 0.506 ± 0.025 in test [2] (1 nM); 0.473 ± 0.018 in test [2] (5 nM); 0.402 ± 0.029 in test [2] (10 nM). Further, the surviving fraction came to 0.446 ± 0.021 in test [2] (50 nM), 0.389 ± 0.043 in test [2] (100 nM), 0.376 ± 0.0098 in test [2] (500 nM) and 0.379 ± 0.014 in test [2] (1000 nM).
As for CHLA90 AUTONOMIC GANGLIA, the surviving fraction in test [1] (0.5 nM) worked out at 0.964 ± 0.044; in test [1] (1 nM), 0.995 ± 0.043; in test [1] (5 nM) it was 0.978 ± 0.069; in test [1] (10 nM), 0.959 ± 0.042; in test [1] (50 nM) it was 0.925 ± 0.043; in test [1] (100 nM), 0.925 ± 0.043. Also, the surviving fraction in test [1] (500 nM) was 0.557 ± 0.05; in test [1] (1000 nM), 0.484 ± 0.02; in test [2] (0.5 nM), 0.634 ± 0.051; in test [2] (1 nM), 0.512 ± 0.026; in test [2] (5 nM) it was 0.342 ± 0.021; in test [2] (10 nM), 0.343 ± 0.011. Further, the surviving fraction in test [2] (50 nM) stood at 0.372 ± 0.066; in test [2] (100 nM) it was 0.404 ± 0.091; in test [2] (500 nM), 0.355 ± 0.067; in test [2] (1000 nM) it was 0.344 ± 0.085.
For the test system CME SYNOVIAL, the surviving fraction in test [1] (0.5 nM) was found to be 1.18 ± 0.13; in test [1] (1 nM), 1.09 ± 0.048; in test [1] (5 nM), 1.13 ± 0.081; in test [1] (10 nM) it was 1.13 ± 0.13; in test [1] (50 nM) it was 0.766 ± 0.015; in test [1] (100 nM), 0.364 ± 0.04. Also, the surviving fraction in test [1] (500 nM) stood at 0.265 ± 0.0095; in test [1] (1000 nM), 0.369 ± 0.023; in test [2] (0.5 nM), 1.2 ± 0.12; in test [2] (1 nM), 1.2 ± 0.2; in test [2] (5 nM), 1.29 ± 0.071; in test [2] (10 nM), 1.15 ± 0.16. The surviving fraction in test [2] (50 nM) was determined as 0.885 ± 0.096; in test [2] (100 nM), 0.828 ± 0.066; in test [2] (500 nM) it was 0.66 ± 0.085; in test [2] (1000 nM), 0.77 ± 0.1.
COLO320DM LARGE INTESTINE: the surviving fraction in test [1] (0.5 nM) was 1.16 ± 0.034; in test [1] (1 nM) it was 1.05 ± 0.058; in test [1] (5 nM), 1.15 ± 0.044; in test [1] (10 nM) it was 1.05 ± 0.093; in test [1] (50 nM) it was 1.14 ± 0.046; in test [1] (100 nM), 1.05 ± 0.049. Besides, the surviving fraction turned out to be 1.04 ± 0.03 in test [1] (500 nM); 0.962 ± 0.042 in test [1] (1000 nM); 0.945 ± 0.056 in test [2] (0.5 nM); 0.983 ± 0.072 in test [2] (1 nM); 0.835 ± 0.081 in test [2] (5 nM); 0.843 ± 0.074 in test [2] (10 nM). Besides, the surviving fraction in test [2] (50 nM) was found to be 0.742 ± 0.017; in test [2] (100 nM) it was 0.779 ± 0.037; in test [2] (500 nM) it was 0.695 ± 0.047; in test [2] (1000 nM), 0.652 ± 0.025.
On to DU4475 BREAST, for which the surviving fraction is 0.932 ± 0.028 in test [1] (0.5 nM); 0.97 ± 0.11 in test [1] (1 nM); 0.848 ± 0.075 in test [1] (5 nM); 0.7 ± 0.089 in test [1] (10 nM); 0.257 ± 0.1 in test [1] (50 nM); 0.146 ± 0.037 in test [1] (100 nM). For the same test system, the surviving fraction in test [1] (500 nM) was determined as 0.0573 ± 0.011; in test [1] (1000 nM) it was 0.0397 ± 0.0084; in test [2] (0.5 nM), 0.429 ± 0.1; in test [2] (1 nM), 0.272 ± 0.054; in test [2] (5 nM) it was 0.148 ± 0.0015; in test [2] (10 nM), 0.161 ± 0.03. For the same test system, the surviving fraction in test [2] (50 nM) stood at 0.108 ± 0.031; in test [2] (100 nM), 0.125 ± 0.03; in test [2] (500 nM) it was 0.103 ± 0.0061; in test [2] (1000 nM), 0.0877 ± 0.012.
In the case of H23 LUNG, the surviving fraction came out at 0.988 ± 0.067 in test [1] (0.5 nM); 1.07 ± 0.053 in test [1] (1 nM); 1.01 ± 0.033 in test [1] (5 nM); 1.04 ± 0.056 in test [1] (10 nM); 1.11 ± 0.03 in test [1] (50 nM); 1.07 ± 0.04 in test [1] (100 nM). Further, the surviving fraction came out at 0.565 ± 0.019 in test [1] (500 nM); 0.509 ± 0.02 in test [1] (1000 nM); 0.811 ± 0.023 in test [2] (0.5 nM); 0.724 ± 0.011 in test [2] (1 nM); 0.567 ± 0.049 in test [2] (5 nM); 0.501 ± 0.039 in test [2] (10 nM). In addition, the surviving fraction in test [2] (50 nM) came to 0.488 ± 0.022; in test [2] (100 nM) it was 0.482 ± 0.034; in test [2] (500 nM), 0.405 ± 0.048; in test [2] (1000 nM), 0.433 ± 0.03.
Take HCC38 BREAST: the surviving fraction in test [1] (0.5 nM) was found to be 1.28 ± 0.31; in test [1] (1 nM), 1.19 ± 0.15; in test [1] (5 nM) it was 1.16 ± 0.18; in test [1] (10 nM) it was 1.17 ± 0.1; in test [1] (50 nM), 1.09 ± 0.054; in test [1] (100 nM) it was 1.21 ± 0.059. The surviving fraction in test [1] (500 nM) amounted to 0.53 ± 0.067; in test [1] (1000 nM) it was 0.316 ± 0.026; in test [2] (0.5 nM), 1.17 ± 0.022; in test [2] (1 nM), 1.01 ± 0.065; in test [2] (5 nM), 0.897 ± 0.11; in test [2] (10 nM), 0.925 ± 0.069. For the same test system, the surviving fraction is 0.795 ± 0.08 in test [2] (50 nM), 0.888 ± 0.033 in test [2] (100 nM), 0.733 ± 0.024 in test [2] (500 nM) and 0.852 ± 0.027 in test [2] (1000 nM).
